Experimental data published in ChEMBL document CHEMBL1201862, “PubChem BioAssay data set” (2004).
Activity calls are given as the source filed them.

What was measured:
[1] = Luminescence Cell-Based Dose Retest to Confirm Inhibitors of Cancer Stem Cells. [Related pubchem assays (depositor defined):AID2717, AID2721]; assay type: functional; details: Homo sapiens
[2] = inhibitors of intracellular T. cruzi replication, confirmation, NIH3T3 host cells, beta-gal luminescence (AID 2044); assay type: functional, cell-based;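 note: intracellular parasites grown in NIH/3T3 mouse fibroblasts as host cells; luminescent beta-galactosidase reporter signal from transgenic T. cruzi replicating inside host cells; inhibitors lower the luminescence signal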
[3] = cytotoxicity toward NIH3T3 fibroblasts, dose response, counter-screen, cell-based, ATP luminescence, mouse fibroblasts (AID 2010); assay type: functional;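 note: cells exposed to compound for about 90 hours before reading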
INS1 = test: beta cell apoptosis inhibitors, cytokine rescue, dose response, luminescence, retest (AID 449756); assay type: functional, cell-based; details: Rattus norvegicus;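 note: cell death triggered by IL-1 beta plus TNF-alpha plus IFN-gamma mixture; protective hits raise ATP signal compared with cytokine alone wells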
[4] = target: T1, Rac GTPase-activating protein 1 (Homo sapiens, UniProt Q9H0H5); test: MgcRacGAP GTPase-activating activity inhibitors, confirmation, biochemical, ADP Hunter fluorescence, primary and confirmatory (AID 624330); assay type: functional
T1 sequence (Q9H0H5 whole entry): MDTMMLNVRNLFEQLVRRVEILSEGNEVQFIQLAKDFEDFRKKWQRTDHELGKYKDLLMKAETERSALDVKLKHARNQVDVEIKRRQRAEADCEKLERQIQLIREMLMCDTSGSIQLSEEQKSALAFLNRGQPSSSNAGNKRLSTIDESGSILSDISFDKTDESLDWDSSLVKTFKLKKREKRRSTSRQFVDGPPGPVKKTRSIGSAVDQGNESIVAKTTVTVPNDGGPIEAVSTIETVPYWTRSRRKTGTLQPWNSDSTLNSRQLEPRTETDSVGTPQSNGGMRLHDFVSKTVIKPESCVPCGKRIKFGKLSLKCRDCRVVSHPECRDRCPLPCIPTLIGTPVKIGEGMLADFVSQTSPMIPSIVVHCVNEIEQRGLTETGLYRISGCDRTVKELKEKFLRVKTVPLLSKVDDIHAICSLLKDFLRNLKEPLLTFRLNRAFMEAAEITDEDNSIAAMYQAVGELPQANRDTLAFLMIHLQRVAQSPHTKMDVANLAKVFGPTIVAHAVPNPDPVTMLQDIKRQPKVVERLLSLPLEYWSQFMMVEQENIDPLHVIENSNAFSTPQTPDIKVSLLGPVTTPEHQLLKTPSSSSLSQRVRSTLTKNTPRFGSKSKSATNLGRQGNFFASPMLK

Cytochrome P450 2C9 = Cytochrome P450 2C9 (Homo sapiens, UniProt P11712)
Cytochrome P450 3A4 = Cytochrome P450 3A4 (Homo sapiens, UniProt P08684);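 note: CYP3A4 tested as one member of a cytochrome P450 panel screen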
[5] = NIH-3T3 fibroblast cytotoxicity, dose response, cytotoxicity control, cell-based, fluorescence, Alamar Blue, secondary assay (AID 2327); assay type: functional;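 note: NIH-3T3 mouse fibroblasts cultured with fluconazole at 8 µg/mL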
Cytochrome P450 2D6 = Cytochrome P450 2D6 (Homo sapiens, UniProt P10635);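 note: CYP2D6 member of a cytochrome P450 panel assay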
Cytochrome P450 2C19 = Cytochrome P450 2C19 (Homo sapiens, UniProt P33261); test: Cytochrome panel assay with activity outcomes. Panel member name: p450-cyp2c19 Compounds with AC50 equal or less than 10 uM are considered active; assay type: functional; details: read-out: AC50
Sequence of Cytochrome P450 2C19 (P33261 whole entry): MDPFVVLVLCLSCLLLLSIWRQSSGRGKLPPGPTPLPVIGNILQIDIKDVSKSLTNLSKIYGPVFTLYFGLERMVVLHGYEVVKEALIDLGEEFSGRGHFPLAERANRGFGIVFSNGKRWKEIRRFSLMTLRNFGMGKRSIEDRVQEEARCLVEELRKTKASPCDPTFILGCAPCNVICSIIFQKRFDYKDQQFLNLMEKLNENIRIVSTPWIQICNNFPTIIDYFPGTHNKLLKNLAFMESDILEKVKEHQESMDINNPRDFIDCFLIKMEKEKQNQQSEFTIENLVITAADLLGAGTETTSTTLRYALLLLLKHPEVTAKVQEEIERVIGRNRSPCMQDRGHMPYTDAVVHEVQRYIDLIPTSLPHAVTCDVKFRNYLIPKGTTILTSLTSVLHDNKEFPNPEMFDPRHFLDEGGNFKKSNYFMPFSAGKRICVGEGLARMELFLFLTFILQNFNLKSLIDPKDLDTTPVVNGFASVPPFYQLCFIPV

Sequence of Cytochrome P450 3A4 (P08684 whole entry): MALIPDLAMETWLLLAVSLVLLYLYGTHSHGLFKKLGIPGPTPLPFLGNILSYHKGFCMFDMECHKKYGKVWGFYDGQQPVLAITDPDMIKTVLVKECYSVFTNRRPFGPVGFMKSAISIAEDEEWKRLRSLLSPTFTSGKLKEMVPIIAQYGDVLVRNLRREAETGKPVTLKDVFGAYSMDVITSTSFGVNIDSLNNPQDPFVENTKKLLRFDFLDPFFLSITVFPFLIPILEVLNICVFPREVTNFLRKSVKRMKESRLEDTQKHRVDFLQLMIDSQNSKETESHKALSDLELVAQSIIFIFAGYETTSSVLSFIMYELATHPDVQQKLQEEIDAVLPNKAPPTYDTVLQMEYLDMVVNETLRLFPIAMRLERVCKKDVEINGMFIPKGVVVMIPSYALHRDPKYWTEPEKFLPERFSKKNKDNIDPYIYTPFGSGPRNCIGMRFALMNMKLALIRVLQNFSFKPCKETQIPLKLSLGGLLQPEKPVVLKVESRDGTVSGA
Sequence of Cytochrome P450 2C9 (P11712 whole entry): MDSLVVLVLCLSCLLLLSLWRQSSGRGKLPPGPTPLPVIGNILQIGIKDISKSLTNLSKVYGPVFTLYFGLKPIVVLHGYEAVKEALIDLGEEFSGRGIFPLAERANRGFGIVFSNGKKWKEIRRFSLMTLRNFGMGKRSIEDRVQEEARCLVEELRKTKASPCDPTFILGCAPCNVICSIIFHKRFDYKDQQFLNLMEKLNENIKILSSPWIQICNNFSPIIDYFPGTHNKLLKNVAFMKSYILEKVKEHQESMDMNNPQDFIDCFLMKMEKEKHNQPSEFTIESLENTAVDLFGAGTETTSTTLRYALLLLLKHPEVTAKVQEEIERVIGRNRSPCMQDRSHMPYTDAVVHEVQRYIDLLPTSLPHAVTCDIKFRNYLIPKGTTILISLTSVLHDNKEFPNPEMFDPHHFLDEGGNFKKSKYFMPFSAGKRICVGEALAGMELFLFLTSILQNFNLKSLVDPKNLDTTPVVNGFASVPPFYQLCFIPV
Sequence of Cytochrome P450 2D6 (P10635 whole entry): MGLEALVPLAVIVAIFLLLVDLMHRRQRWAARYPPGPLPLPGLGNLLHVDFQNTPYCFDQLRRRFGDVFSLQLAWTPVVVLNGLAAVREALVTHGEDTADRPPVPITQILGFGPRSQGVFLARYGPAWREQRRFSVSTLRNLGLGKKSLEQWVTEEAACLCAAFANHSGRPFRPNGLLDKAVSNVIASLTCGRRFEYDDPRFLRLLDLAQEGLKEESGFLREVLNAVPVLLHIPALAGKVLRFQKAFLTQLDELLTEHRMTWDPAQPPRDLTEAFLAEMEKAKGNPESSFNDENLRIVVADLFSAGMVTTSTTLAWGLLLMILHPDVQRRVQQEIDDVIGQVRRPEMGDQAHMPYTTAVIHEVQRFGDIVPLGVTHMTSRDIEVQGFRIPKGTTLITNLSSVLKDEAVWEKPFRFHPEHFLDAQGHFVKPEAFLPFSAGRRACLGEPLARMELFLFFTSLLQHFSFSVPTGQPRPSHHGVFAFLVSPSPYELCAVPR

Row | SMILES | IC50 [4] | AC50 (Cytochrome P450 2C9) | also measured
1 | Cc1ccc(C(=O)N2N=C(c3ccc(Br)cc3)CC2c2ccccc2O)cc1 (centres undefined) |  |  | AC50 [1]: 3.63 µM (active); EC50 [2]: 2.15 µM (active); EC50 [3]: 13.6 µM (active); AC50 (INS1): 7.42 µM (active)
2 | Oc1ccccc1/C=N/C1=NN(c2cccc(C(F)(F)F)c2)CC1 | 16.9 µM (active) |  | 
3 | CN(Cc1ccccc1)C(=O)C1CCCN(Cc2ccc(Cl)cc2)C1 (centres undefined) | 161 µM (active) |  | 
4 | Cc1ccc(NC(=O)CNCCCN2CCOCC2)cc1S(=O)(=O)N1CCCCC1 | 76.5 µM (active) |  | 
5 | COc1cc2c(cc1OC)C(C(=O)Nc1cccc(C)n1)C(c1cccnc1)N(C)C2=O (centres undefined) |  | 0.00562 µM (inconclusive) | AC50 (Cytochrome P450 3A4): 15.8 µM (inconclusive)
6 | CCOC(=O)c1sc(C)c(C(=O)NCC(C)(C)CN(C)C)c1N |  | 39.8 µM (inconclusive) | 
7 | S=C(NCCSCc1c(Cl)cccc1Cl)Nc1ccccc1 |  | 10 µM (inconclusive) | EC50 [5]: > 160 µM (inactive); EC50 [2]: 2.94 µM (active); EC50 [3]: > 60 µM (not active)
8 | COC(=O)[C@@H]1C[C@H]1[C@@H](NC(=O)c1cc(C)on1)c1ccccc1 |  | 39.8 µM (inconclusive) | AC50 (Cytochrome P450 3A4): 31.6 µM (inconclusive)
9 | COc1cc(OC)c(CN2CCCN(C)CC2)cc1Br | 107 µM (active) |  | 
10 | CNC(C)C(=O)NC(C(=O)N1CCCC1C(=O)NNc1ccccc1)C(C)C (centres undefined) |  |  | AC50 [1]: 2.17 µM (active)
11 | C/C(=N\NC(=O)c1nnn(-c2nonc2N)c1CN1CCc2ccccc21)c1ccccc1O |  |  | AC50 [1]: 2.72 µM (active); AC50 (INS1): 1.98 µM (active)
12 | Cc1noc(C)c1CS(=O)(=O)c1ccc(Br)cc1 |  | 31.6 µM (inconclusive) | 
13 | CCCCN=C(NNc1ccc(Br)cc1)C(=O)OCC |  |  | AC50 [1]: 2.89 µM (active)
14 | Cc1nc2sccc2c(=O)n1-c1cccc(Cl)c1 |  | 20 µM (inconclusive) | AC50 (Cytochrome P450 2D6): 12.6 µM (inconclusive)
15 | Cc1cc(=O)oc(C)c1C(=O)NCc1cccnc1 |  | 3.16 µM (inconclusive) | AC50 (Cytochrome P450 3A4): 25.1 µM (inconclusive)
16 | COc1ccc(CNc2ncc(-c3ccc(F)cc3)n2C)cc1OC | 56.8 µM (active) |  | 
17 | NC(=O)CC(NC(=O)Cc1ccc(Br)cc1)c1ccc(N2CCC(Cc3ccccc3)CC2)c([N+](=O)[O-])c1 (centres undefined) |  |  | AC50 [1]: 12.3 µM (active)
18 | COCCNC(=O)c1ccc2c(c1)ncn2-c1ccc(F)c(F)c1 |  | 17.8 µM (inconclusive) | AC50 (Cytochrome P450 2C19): 28.2 µM (inconclusive)
19 | COc1ncc2nc(CCc3ccccc3)c(=O)n(-c3ccccc3)c2n1 |  | 25.1 µM (inconclusive) | 
20 | NCCc1c[nH]c2ccc(OC(=O)C(=O)O)cc12 |  | 3.98 µM (inconclusive) | AC50 (Cytochrome P450 2C19): 1.58 µM (inconclusive)
21 | CCC1C=CC=CC[C@H](C)[C@@H](O)[C@](C)(O)C(=O)[C@@H](C)[C@H](O)[C@@H](C)C(=O)[C@H](C)[C@@H](O)[C@H](C)C=CC(=O)OC2[C@@H](C)C(CC1)OC1(CC[C@@H](C)C(C[C@H](C)O)O1)[C@@H]2C (some centres undefined) |  |  | AC50 [1]: 2.9 µM (active)
22 | COc1nc(Nc2ccc(O)cc2)nc(OC(C(F)(F)F)C(F)(F)F)n1 | 35.1 µM (active) |  | 
23 | CSc1ncnc2c1ncn2CCCNc1ccc(C)c(C)c1 | 207 µM (active) |  | 
24 | CNc1ncc(C(=O)c2ccccc2)s1 |  | 7.94 µM (inconclusive) | AC50 (Cytochrome P450 2C19): 2.24 µM (inconclusive); AC50 (Cytochrome P450 3A4): 28.2 µM (inconclusive)
25 | c1csc(CN2CCCC3(CCNCC3)C2)n1 |  | 31.6 µM (inconclusive) | 
26 | C=CCNC(=S)N1CCN(Cc2ccc3c(c2)OCO3)CC1 | 158 µM (active) |  | 
27 | COc1cc(N)ccc1NC(=O)c1cccs1 | 106 µM (active) |  | 
28 | CCNC(=O)NC(=O)CSc1nc2ccccc2n1CC(C)C |  | 20 µM (inconclusive) | AC50 (Cytochrome P450 2D6): 14.1 µM (inconclusive)
